Data: patent US20220281848A1, “PYRAZOLE-SUBSTITUTED PYRROLIDINONES AS HERBICIDES” (FMC Corporation, priority 2019, published 2022)

Test system: plants
Test: Test D pre-emergence, other plants of Tables D1 and D3
Assay type: in vivo
Settings: preemergent, 20 DAA
Method in brief: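 Damage was rated visually from 0 (none) to 100 (total), at 20 DAA for pre-emergence and 15 d for post-emergence. Plants grew from safener-treated seed in a glasshouse at 24/18° C. or 20/16° C. day/night, 65% humidity, watered twice daily.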

## CN1C[C@H](c2nn(C)c3c(F)cccc23)[C@@H](C(=O)Nc2cccc(F)c2F)C1=O [Compound 2]
Rate 15
  damage to plant (100=total damage to plant; 0=no damage to plant), ABUTH: 0
  damage to plant (100=total damage to plant; 0=no damage to plant), AMARE: 0
  damage to plant (100=total damage to plant; 0=no damage to plant), BIDPI: 0
  damage to plant (100=total damage to plant; 0=no damage to plant), BRAPL: 0
  damage to plant (100=total damage to plant; 0=no damage to plant), CYPES: 0
  damage to plant (100=total damage to plant; 0=no damage to plant), DIGSA: 0
  damage to plant (100=total damage to plant; 0=no damage to plant), ECHCG: 50
  damage to plant (100=total damage to plant; 0=no damage to plant), ELEIN: 0
  damage to plant (100=total damage to plant; 0=no damage to plant), EPHHL: 0
  damage to plant (100=total damage to plant; 0=no damage to plant), GLXMA: 0
  damage to plant (100=total damage to plant; 0=no damage to plant), IPOHE: 0
  damage to plant (100=total damage to plant; 0=no damage to plant), ORYSA: 0
  damage to plant (100=total damage to plant; 0=no damage to plant), PANMI: 0
  damage to plant (100=total damage to plant; 0=no damage to plant), SETFA: 0
  damage to plant (100=total damage to plant; 0=no damage to plant), SIDSP: 0
  damage to plant (100=total damage to plant; 0=no damage to plant), SORVU: 0
Rate 30
  damage to plant (100=total damage to plant; 0=no damage to plant), ABUTH: 0
  damage to plant (100=total damage to plant; 0=no damage to plant), AMARE: 0
  damage to plant (100=total damage to plant; 0=no damage to plant), BIDPI: 0
  damage to plant (100=total damage to plant; 0=no damage to plant), BRAPL: 70
  damage to plant (100=total damage to plant; 0=no damage to plant), CYPES: 0
  damage to plant (100=total damage to plant; 0=no damage to plant), DIGSA: 90
  damage to plant (100=total damage to plant; 0=no damage to plant), ECHCG: 50
  damage to plant (100=total damage to plant; 0=no damage to plant), ELEIN: 0
  damage to plant (100=total damage to plant; 0=no damage to plant), EPHHL: 0
  damage to plant (100=total damage to plant; 0=no damage to plant), GLXMA: 0
  damage to plant (100=total damage to plant; 0=no damage to plant), IPOHE: 0
  damage to plant (100=total damage to plant; 0=no damage to plant), ORYSA: 0
  damage to plant (100=total damage to plant; 0=no damage to plant), PANMI: 0
  damage to plant (100=total damage to plant; 0=no damage to plant), SETFA: 80
  damage to plant (100=total damage to plant; 0=no damage to plant), SIDSP: 0
  damage to plant (100=total damage to plant; 0=no damage to plant), SORVU: 0
Rate 60
  damage to plant (100=total damage to plant; 0=no damage to plant), ABUTH: 0
  damage to plant (100=total damage to plant; 0=no damage to plant), AMARE: 0
  damage to plant (100=total damage to plant; 0=no damage to plant), BIDPI: 0
  damage to plant (100=total damage to plant; 0=no damage to plant), BRAPL: 80
  damage to plant (100=total damage to plant; 0=no damage to plant), CYPES: 0
  damage to plant (100=total damage to plant; 0=no damage to plant), DIGSA: 90
  damage to plant (100=total damage to plant; 0=no damage to plant), ECHCG: 80
  damage to plant (100=total damage to plant; 0=no damage to plant), ELEIN: 0
  damage to plant (100=total damage to plant; 0=no damage to plant), EPHHL: 0
  damage to plant (100=total damage to plant; 0=no damage to plant), GLXMA: 0
  damage to plant (100=total damage to plant; 0=no damage to plant), IPOHE: 0
  damage to plant (100=total damage to plant; 0=no damage to plant), ORYSA: 0
  damage to plant (100=total damage to plant; 0=no damage to plant), PANMI: 0
  damage to plant (100=total damage to plant; 0=no damage to plant), SETFA: 80
  damage to plant (100=total damage to plant; 0=no damage to plant), SIDSP: 0
  damage to plant (100=total damage to plant; 0=no damage to plant), SORVU: 0
Rate 130
  damage to plant (100=total damage to plant; 0=no damage to plant), ABUTH: 0
  damage to plant (100=total damage to plant; 0=no damage to plant), AMARE: 0
  damage to plant (100=total damage to plant; 0=no damage to plant), BIDPI: 0
  damage to plant (100=total damage to plant; 0=no damage to plant), BRAPL: 80
  damage to plant (100=total damage to plant; 0=no damage to plant), CYPES: 0
  damage to plant (100=total damage to plant; 0=no damage to plant), DIGSA: 90
  damage to plant (100=total damage to plant; 0=no damage to plant), ECHCG: 90
  damage to plant (100=total damage to plant; 0=no damage to plant), ELEIN: 0
  damage to plant (100=total damage to plant; 0=no damage to plant), EPHHL: 0
  damage to plant (100=total damage to plant; 0=no damage to plant), GLXMA: 0
  damage to plant (100=total damage to plant; 0=no damage to plant), IPOHE: 0
  damage to plant (100=total damage to plant; 0=no damage to plant), ORYSA: 0
  damage to plant (100=total damage to plant; 0=no damage to plant), PANMI: 0
  damage to plant (100=total damage to plant; 0=no damage to plant), SETFA: 80
  damage to plant (100=total damage to plant; 0=no damage to plant), SIDSP: 0
Rate 250
  damage to plant (100=total damage to plant; 0=no damage to plant), ABUTH: 0
  damage to plant (100=total damage to plant; 0=no damage to plant), AMARE: 0
  damage to plant (100=total damage to plant; 0=no damage to plant), BIDPI: 0
  damage to plant (100=total damage to plant; 0=no damage to plant), BRAPL: 90
  damage to plant (100=total damage to plant; 0=no damage to plant), CYPES: 0
  damage to plant (100=total damage to plant; 0=no damage to plant), DIGSA: 90
  damage to plant (100=total damage to plant; 0=no damage to plant), ECHCG: 90
  damage to plant (100=total damage to plant; 0=no damage to plant), ELEIN: 0
  damage to plant (100=total damage to plant; 0=no damage to plant), EPHHL: 0
  damage to plant (100=total damage to plant; 0=no damage to plant), GLXMA: 0
  damage to plant (100=total damage to plant; 0=no damage to plant), IPOHE: 0
  damage to plant (100=total damage to plant; 0=no damage to plant), ORYSA: 0
  damage to plant (100=total damage to plant; 0=no damage to plant), PANMI: 0
  damage to plant (100=total damage to plant; 0=no damage to plant), SETFA: 80
  damage to plant (100=total damage to plant; 0=no damage to plant), SIDSP: 0
Rate 500
  damage to plant (100=total damage to plant; 0=no damage to plant), ABUTH: 20
  damage to plant (100=total damage to plant; 0=no damage to plant), AMARE: 0
  damage to plant (100=total damage to plant; 0=no damage to plant), BIDPI: 0
  damage to plant (100=total damage to plant; 0=no damage to plant), BRAPL: 90
  damage to plant (100=total damage to plant; 0=no damage to plant), CYPES: 0
  damage to plant (100=total damage to plant; 0=no damage to plant), DIGSA: 90
  damage to plant (100=total damage to plant; 0=no damage to plant), ECHCG: 90
  damage to plant (100=total damage to plant; 0=no damage to plant), ELEIN: 0
  damage to plant (100=total damage to plant; 0=no damage to plant), EPHHL: 10
  damage to plant (100=total damage to plant; 0=no damage to plant), GLXMA: 0
  damage to plant (100=total damage to plant; 0=no damage to plant), IPOHE: 0
  damage to plant (100=total damage to plant; 0=no damage to plant), ORYSA: 0
  damage to plant (100=total damage to plant; 0=no damage to plant), PANMI: 0
  damage to plant (100=total damage to plant; 0=no damage to plant), SETFA: 90
  damage to plant (100=total damage to plant; 0=no damage to plant), SIDSP: 0
